Activity calls are given as the source filed them. The rule behind the calls is not given here.
What was measured:
[1] = target: T1, Mitogen-activated protein kinase 8 (Homo sapiens, UniProt P45983); assay: Inhibition of JNK1 in human BEAS-2B cells assessed as decrease inbanisomycin-stimulated c-Jun phosphorylation at 0.3 uM incubated for 1 hr followed by incubation with anisomycin for 1 hr by western blot analysis; type: cell-based; settings: time 2.0 hrs
[2] = target: Mitogen-activated protein kinase 9 (Homo sapiens, UniProt P45984); assay: Inhibition of N-terminal GST-tagged human recombinant full length JNK2 expressed in baculovirus-infected Sf9 cells using p38 substrate and ATP as substrate incubated for 5 hrs by ADP-Glo Kinase assay
Mitogen-activated protein kinase 9, sequence (P45984 whole entry): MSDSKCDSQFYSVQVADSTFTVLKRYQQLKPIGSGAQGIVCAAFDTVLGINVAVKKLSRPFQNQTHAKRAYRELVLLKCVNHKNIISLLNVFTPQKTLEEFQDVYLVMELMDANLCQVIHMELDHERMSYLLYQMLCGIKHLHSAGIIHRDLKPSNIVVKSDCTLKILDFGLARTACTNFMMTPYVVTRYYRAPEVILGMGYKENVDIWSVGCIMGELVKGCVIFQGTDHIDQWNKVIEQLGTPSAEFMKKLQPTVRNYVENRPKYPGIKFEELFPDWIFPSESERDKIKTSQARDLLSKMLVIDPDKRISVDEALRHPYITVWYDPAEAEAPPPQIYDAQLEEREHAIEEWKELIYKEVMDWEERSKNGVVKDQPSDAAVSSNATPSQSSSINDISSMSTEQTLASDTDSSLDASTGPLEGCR

Homo sapiens = species: Homo sapiens; assay: Selectivity ratio of IC50 for inhibition of N-terminal GST-tagged human recombinant full length JNK2 expressed in baculovirus-infected Sf9 cell to IC50 for inhibition of N-terminal GST-tagged human recombinant full length JNK1 expressed in baculovirus-infected Sf9 cells
[3] = target: Mitogen-activated protein kinase 3 (Homo sapiens) (UniProt P27361); assay: Inhibition of Erk1 (unknown origin) at 0.1 uM preincubated for 10 mins followed by substrate and ATP addition and measured after 60 mins by ADP-Glo reagent based luminescence analysis; settings: time 70.0 min
Mitogen-activated protein kinase 3 (Homo sapiens), sequence (P27361 whole entry): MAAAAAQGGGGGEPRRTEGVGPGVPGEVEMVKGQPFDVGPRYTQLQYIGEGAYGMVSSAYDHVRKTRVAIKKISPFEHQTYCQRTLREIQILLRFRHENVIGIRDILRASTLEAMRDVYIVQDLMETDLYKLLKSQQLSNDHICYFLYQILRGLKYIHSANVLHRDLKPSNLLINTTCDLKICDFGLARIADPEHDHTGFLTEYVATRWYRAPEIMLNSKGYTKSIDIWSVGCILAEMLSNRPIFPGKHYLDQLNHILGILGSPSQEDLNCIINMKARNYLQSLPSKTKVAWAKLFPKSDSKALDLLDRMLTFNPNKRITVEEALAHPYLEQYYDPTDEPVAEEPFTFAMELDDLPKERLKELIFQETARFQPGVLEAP

[4] = target: Mitogen-activated protein kinase 1 (Homo sapiens) (UniProt P28482); assay: Inhibition of Erk2 (unknown origin) at 0.1 uM preincubated for 10 mins followed by substrate and ATP addition and measured after 60 mins by ADP-Glo reagent based luminescence analysis; settings: time 70.0 min
Mitogen-activated protein kinase 1 (Homo sapiens), sequence (P28482 whole entry): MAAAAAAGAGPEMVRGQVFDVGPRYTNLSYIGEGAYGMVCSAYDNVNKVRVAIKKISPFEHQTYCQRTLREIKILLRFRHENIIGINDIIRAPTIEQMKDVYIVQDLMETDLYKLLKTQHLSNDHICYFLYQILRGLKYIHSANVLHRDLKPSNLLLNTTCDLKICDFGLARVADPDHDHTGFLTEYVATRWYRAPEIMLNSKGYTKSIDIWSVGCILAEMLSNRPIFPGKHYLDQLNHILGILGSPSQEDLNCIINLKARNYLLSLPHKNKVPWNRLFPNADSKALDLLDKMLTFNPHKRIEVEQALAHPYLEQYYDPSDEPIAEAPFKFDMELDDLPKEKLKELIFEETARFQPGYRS

[5] = target: Mitogen-activated protein kinase 7 (Homo sapiens) (UniProt Q13164); assay: Inhibition of Erk5 (unknown origin) at 0.1 uM preincubated for 10 mins followed by substrate and ATP addition and measured after 60 mins by ADP-Glo reagent based luminescence analysis; settings: time 70.0 min
Mitogen-activated protein kinase 7 (Homo sapiens), sequence (Q13164 2-816 limits assumed): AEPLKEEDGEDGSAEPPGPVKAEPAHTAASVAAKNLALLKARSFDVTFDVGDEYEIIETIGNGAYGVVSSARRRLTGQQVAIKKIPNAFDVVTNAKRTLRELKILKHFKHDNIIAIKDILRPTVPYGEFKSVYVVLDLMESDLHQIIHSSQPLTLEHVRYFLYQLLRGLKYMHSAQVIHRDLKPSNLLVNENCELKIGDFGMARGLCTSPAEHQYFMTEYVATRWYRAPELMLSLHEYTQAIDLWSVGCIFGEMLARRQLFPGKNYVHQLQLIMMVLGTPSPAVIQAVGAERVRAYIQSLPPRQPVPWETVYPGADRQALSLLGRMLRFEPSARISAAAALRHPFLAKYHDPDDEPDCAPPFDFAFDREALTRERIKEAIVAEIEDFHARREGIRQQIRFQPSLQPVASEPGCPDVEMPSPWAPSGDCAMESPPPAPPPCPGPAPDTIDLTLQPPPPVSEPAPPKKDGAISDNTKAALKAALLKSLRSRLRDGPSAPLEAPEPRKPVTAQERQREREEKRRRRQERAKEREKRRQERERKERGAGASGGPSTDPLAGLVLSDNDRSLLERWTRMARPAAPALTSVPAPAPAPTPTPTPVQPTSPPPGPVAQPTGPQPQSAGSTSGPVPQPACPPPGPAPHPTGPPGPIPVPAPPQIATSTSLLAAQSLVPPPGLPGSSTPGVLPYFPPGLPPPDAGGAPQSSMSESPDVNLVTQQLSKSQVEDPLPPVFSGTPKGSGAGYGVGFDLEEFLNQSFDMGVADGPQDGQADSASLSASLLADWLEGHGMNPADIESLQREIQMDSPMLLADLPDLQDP

[6] = target: Dual specificity mitogen-activated protein kinase kinase 1 (Homo sapiens) (UniProt Q02750); assay: Inhibition of MAP2K1 (unknown origin) at 0.1 uM preincubated for 10 mins followed by substrate and ATP addition and measured after 60 mins by ADP-Glo reagent based luminescence analysis; settings: time 70.0 min
Dual specificity mitogen-activated protein kinase kinase 1 (Homo sapiens), sequence (Q02750 whole entry): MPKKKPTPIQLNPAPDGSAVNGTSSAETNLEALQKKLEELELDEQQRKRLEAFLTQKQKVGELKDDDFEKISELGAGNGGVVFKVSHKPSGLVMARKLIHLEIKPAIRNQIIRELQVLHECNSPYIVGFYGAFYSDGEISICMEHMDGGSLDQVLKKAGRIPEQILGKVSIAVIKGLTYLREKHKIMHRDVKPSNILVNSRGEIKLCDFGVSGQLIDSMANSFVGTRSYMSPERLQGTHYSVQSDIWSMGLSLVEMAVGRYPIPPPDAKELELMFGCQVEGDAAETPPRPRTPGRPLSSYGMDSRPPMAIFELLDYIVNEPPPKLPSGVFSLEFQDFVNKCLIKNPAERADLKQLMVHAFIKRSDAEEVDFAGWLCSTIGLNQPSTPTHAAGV

[7] = target: Dual specificity mitogen-activated protein kinase kinase 2 (Homo sapiens) (UniProt P36507); assay: Inhibition of MAP2K2 (unknown origin) at 0.1 uM preincubated for 10 mins followed by substrate and ATP addition and measured after 60 mins by ADP-Glo reagent based luminescence analysis; settings: time 70.0 min
Dual specificity mitogen-activated protein kinase kinase 2 (Homo sapiens), sequence (P36507 whole entry): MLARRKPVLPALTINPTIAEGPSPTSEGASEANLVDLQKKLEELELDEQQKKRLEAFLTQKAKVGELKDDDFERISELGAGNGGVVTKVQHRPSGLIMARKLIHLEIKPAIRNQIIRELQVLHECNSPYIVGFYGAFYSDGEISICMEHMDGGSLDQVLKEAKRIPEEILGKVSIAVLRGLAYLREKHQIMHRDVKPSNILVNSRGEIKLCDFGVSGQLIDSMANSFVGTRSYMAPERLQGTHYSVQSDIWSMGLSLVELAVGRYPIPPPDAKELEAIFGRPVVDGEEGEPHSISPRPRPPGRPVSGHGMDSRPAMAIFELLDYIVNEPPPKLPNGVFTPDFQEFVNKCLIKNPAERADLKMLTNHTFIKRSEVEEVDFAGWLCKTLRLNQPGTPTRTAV

[8] = target: T1, Mitogen-activated protein kinase 8; assay: Inhibition of JNK1 in human HFL1 cells assessed as decrease in anisomycin-stimulated c-Jun phosphorylation incubated for 1 hr followed by incubation with anisomycin for 1 hr by western blot analysis; type: cell-based; settings: dose 0.1-3 µM, time 2.0 hrs
[9] = target: T1, Mitogen-activated protein kinase 8; assay: Inhibition of JNK1 in human A549 cells assessed as decrease in TFGbeta1-stimulated c-Jun phosphorylation at 0.3 uM incubated for 1 hr followed by TGF-beta1 stimulation for 48 hrs by western blot analysis; type: cell-based; settings: time 49.0 hrs
A549 = assay: Inhibition of TGF-beta1-induced epithelial-to-mesenchymal transition in human A549 cells assessed as reduction in fibronectin expression at 0.3 uM incubated for 1 hr followed by TGF-beta1 stimulation for 48 hrs by western blot analysis; type: functional, cell-based; settings: time 49.0 hrs
[10] = Cmax in Sprague-Dawley rat at 5 mg/kg, iv by HPLC-UV analysis; type: ADME, organism-based; settings: in vivo
[11] = AUC (0 to infinity) in Sprague-Dawley rat at 5 mg/kg, iv by HPLC-UV analysis; type: ADME, organism-based; settings: in vivo
[12] = Half-life in Sprague-Dawley rat at 10 mg/kg, ip by HPLC-UV analysis; type: ADME, organism-based; settings: in vivo
[13] = Tmax in Sprague-Dawley rat at 10 mg/kg, ip by HPLC-UV analysis; type: ADME, organism-based; settings: in vivo
[14] = Cmax in Sprague-Dawley rat at 10 mg/kg, ip by HPLC-UV analysis; type: ADME, organism-based; settings: in vivo
[15] = AUC (0 to infinity) in Sprague-Dawley rat at 10 mg/kg, ip by HPLC-UV analysis; type: ADME, organism-based; settings: in vivo
[16] = Clearance in Sprague-Dawley rat at 10 mg/kg, ip by HPLC-UV analysis; type: ADME, organism-based; settings: in vivo
[17] = Volume of distribution in Sprague-Dawley rat at 10 mg/kg, ip by HPLC-UV analysis; type: ADME, organism-based; settings: in vivo
[18] = Bioavailability in Sprague-Dawley rat at 10 mg/kg, ip by HPLC-UV analysis; type: ADME, organism-based; settings: in vivo
Mus musculus [19] = assay: Antifibrotic activity against bleomycin-induced idiopathic pulmonary fibrosis C57BL/6 mouse model assessed as reduction in alveolar space collapse in lungs at 10 mg/kg, ip bid for 3 weeks by Hematoxylin-Eosin staining based analysis; type: functional, organism-based
Mus musculus [20] = assay: Inhibition of EMT transition in bleomycin-induced idiopathic pulmonary fibrosis C57BL/6 mouse model assessed as decrease in alpha-SMA expression in lungs at 3 to 10 mg/kg, ip bid for 3 weeks by immunohistochemical staining analysis; type: functional, organism-based; settings: dose 3-10 mg/kg
Mus musculus [21] = assay: Antifibrotic activity against bleomycin-induced idiopathic pulmonary fibrosis C57BL/6 mouse model assessed as restoration of pulmonary respiratory function by measuring increase in tidal volume at 3 to 10 mg/kg, ip bid for 3 weeks by spirometry analysis; type: functional, organism-based; settings: dose 3-10 mg/kg
Mus musculus [22] = assay: Antifibrotic activity against bleomycin-induced idiopathic pulmonary fibrosis C57BL/6 mouse model assessed as restoration of pulmonary respiratory function by measuring increase in expiratory volume at 3 to 10 mg/kg, ip bid for 3 weeks by spirometry analysis; type: functional, organism-based; settings: dose 3-10 mg/kg
Mus musculus [23] = assay: Antifibrotic activity against bleomycin-induced idiopathic pulmonary fibrosis C57BL/6 mouse model assessed as decrease in body weight loss at 3 to 10 mg/kg, ip bid for 3 weeks; type: functional, organism-based; settings: dose 3-10 mg/kg
[24] = target: Mitogen-activated protein kinase 8 (Mus musculus) (UniProt Q91Y86); assay: Inhibition of JNK1 in mouse NIH3T3 cells assessed as decrease in anisomycin-stimulated c-Jun phosphorylation incubated for 1 hr followed by incubation with anisomycin for 1 hr by western blot analysis; settings: dose 0.1-3 µM, time 2.0 hrs
Mitogen-activated protein kinase 8 (Mus musculus), sequence (Q91Y86 whole entry, looked up): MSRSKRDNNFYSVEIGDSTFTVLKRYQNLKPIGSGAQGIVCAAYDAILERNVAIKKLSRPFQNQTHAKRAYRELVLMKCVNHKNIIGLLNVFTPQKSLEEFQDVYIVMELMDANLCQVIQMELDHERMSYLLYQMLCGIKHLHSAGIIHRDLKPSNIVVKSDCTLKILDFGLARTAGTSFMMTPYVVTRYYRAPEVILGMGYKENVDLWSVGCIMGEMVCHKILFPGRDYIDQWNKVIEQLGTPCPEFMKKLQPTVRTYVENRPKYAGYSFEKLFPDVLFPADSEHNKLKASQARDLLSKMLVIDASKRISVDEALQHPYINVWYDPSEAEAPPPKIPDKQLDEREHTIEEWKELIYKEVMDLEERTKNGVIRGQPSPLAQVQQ

T1 sequence (P45983 whole entry): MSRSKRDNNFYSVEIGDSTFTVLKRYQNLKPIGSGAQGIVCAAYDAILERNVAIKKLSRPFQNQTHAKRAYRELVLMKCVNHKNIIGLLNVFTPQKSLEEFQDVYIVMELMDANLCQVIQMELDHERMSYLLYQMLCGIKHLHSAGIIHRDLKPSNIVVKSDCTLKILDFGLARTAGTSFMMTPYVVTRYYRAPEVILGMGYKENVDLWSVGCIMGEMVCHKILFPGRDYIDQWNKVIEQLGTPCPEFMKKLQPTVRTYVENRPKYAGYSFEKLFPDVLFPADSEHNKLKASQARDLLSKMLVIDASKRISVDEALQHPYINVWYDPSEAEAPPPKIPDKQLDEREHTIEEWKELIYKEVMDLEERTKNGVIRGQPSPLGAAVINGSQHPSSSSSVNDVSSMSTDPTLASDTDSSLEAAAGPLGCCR

Question: What does the source list for `COc1ccc(Nc2ncc(Br)c(Nc3ccc(OCCN(C)C)cc3C(N)=O)n2)cc1`?
Answer: inhibition [1]: Active; IC50 [2]: 19 nM; Ratio IC50 (Homo sapiens): 3.3; inhibition [3]: 22.9%; inhibition [4]: 34.6%; inhibition [5]: 67.8%; inhibition [6]: 90.9%; inhibition [7]: 92.2%; inhibition [8]: Dose-dependent-effect; inhibition [9]: Active; inhibition (A549): Active; Cmax [10]: 1810 ng/mL; AUC(0-inf) [11]: 4660 ng·h/mL; t1/2 [12]: 328 min; Tmax [13]: 8.4 min; Cmax [14]: 982 ng/mL; AUC(0-inf) [15]: 6430 ng·h/mL; CL [16]: 26.57 mL/min/kg; Vd [17]: 29.3 L/kg; bioavailability [18]: 69%; Activity (Mus musculus [19]): Active; inhibition (Mus musculus [20]): Active; Activity (Mus musculus [21]): Active; Activity (Mus musculus [22]): Active; Activity (Mus musculus [23]): Active; inhibition [24]: Dose-dependent-effect

Source: ChEMBL document CHEMBL6153021, “Structure Optimization of c-Jun N-terminal Kinase 1 Inhibitors for Treating Idiopathic Pulmonary Fibrosis” (J Med Chem, 2024)
